# Test results as given in patent US12037336B2, “Compounds with activity as inhibitors of the epithelial sodium channel (ENaC)” (Enterprise Therapeutics Limited, priority 2018, dated 2024).
# Where a name gives a salt, the structure may show the parent alone.
# Molecular target: T1, ENaC (Homo sapiens, UniProt P37088+P51168+P51170)
# T1 construct: host or cells: primary human bronchial epithelial cells (HBECs), differentiated at an air-liquid interface
# T1 sequence (P37088 1-669): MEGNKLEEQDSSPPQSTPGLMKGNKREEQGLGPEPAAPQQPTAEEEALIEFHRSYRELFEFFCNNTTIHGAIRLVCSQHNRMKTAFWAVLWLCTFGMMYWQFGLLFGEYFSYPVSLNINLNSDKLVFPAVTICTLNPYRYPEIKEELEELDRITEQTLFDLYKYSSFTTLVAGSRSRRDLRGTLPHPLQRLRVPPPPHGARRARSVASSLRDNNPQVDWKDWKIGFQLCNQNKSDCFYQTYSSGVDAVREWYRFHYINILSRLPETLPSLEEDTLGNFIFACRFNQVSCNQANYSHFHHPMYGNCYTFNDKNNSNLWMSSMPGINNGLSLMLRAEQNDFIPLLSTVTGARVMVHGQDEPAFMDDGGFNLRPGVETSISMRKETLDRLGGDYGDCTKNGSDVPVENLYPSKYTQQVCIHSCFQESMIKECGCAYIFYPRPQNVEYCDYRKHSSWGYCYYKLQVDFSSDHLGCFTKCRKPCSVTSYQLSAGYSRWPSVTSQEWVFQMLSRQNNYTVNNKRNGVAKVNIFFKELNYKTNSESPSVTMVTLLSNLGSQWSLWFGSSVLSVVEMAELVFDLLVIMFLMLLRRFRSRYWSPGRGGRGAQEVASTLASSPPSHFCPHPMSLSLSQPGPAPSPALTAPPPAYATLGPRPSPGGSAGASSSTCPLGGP
# T1 sequence (P51168 1-640): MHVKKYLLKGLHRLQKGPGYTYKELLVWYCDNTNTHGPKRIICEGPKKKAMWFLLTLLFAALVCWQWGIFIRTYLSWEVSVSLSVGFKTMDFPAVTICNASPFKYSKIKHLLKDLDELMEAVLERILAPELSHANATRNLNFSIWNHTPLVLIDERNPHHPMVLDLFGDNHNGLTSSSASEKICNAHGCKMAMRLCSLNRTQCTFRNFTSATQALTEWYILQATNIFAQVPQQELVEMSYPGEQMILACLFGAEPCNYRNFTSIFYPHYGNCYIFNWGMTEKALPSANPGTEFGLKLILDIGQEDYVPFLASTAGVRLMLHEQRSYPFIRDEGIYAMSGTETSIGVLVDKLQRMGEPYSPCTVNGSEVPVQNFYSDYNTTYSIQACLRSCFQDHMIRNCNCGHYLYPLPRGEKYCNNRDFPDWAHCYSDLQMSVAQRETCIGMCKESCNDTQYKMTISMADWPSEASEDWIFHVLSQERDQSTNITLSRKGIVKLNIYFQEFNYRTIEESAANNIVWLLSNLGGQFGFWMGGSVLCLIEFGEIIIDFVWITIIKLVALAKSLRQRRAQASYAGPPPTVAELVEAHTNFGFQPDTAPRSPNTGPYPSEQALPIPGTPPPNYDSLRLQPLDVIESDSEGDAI
# T1 sequence (P51170 1-649): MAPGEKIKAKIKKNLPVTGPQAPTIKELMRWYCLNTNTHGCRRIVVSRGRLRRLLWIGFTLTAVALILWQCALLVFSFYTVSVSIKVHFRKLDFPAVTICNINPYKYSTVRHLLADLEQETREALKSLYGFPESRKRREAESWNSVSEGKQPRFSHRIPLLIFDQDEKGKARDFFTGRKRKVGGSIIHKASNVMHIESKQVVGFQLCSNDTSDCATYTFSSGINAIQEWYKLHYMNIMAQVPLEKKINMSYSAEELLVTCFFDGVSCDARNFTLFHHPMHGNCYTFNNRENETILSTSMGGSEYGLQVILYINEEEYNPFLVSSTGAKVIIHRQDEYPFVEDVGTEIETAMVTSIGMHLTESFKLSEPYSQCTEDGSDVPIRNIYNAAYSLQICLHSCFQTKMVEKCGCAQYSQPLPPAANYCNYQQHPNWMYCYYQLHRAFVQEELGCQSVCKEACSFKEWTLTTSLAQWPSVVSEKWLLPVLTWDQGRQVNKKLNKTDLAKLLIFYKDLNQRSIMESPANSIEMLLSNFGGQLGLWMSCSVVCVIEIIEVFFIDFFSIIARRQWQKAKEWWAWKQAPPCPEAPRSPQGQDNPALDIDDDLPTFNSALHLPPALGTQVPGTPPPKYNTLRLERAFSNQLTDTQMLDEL
# Test: Short circuit current assay to determine ENaC blocker potency in human bronchial epithelial cells
# Type: cell-based
# Settings: 50% inhibition of the total amiloride-sensitive short-circuit current (ISC) in human bronchial epithelial cells (HBECs) at air-liquid interface; apical addition; read-out: Averages · ENaC IC50 (nM) Avg
# Description: Example 6 Short circuit current assay to determine ENaC blocker potency in human bronchial epithelial cells
# Cell culture Human bronchial epithelial cells (HBECs) (Lonza, UK) were cultured using a modification of the method described by Coote et al, (2008). Cells were seeded into plastic T-75 flasks and grown in Bronchial Epithelial Cell Growth Medium (BEGM) (Lonza, UK) supplemented with bovine pituitary extract (52 ng/mL), hydrocortisone (0.5 μg/mL), human recombinant Epidermal Growth Factor (0.5 ng/mL), epinephrine (0.5 ng/mL), transferrin (10 ng/mL), insulin (5 ng/mL), retinoic acid (0.1 ng/mL), triiodothyronine (6.5 ng/mL), gentamycin (50 μg/mL) and amphotericin-B (50 ng/mL). Medium was changed every 48 hours until cells were 90% confluent. Cells were then passaged and seeded (8.25×10^5 cells/insert) onto polycarbonate Snapwell™ inserts (Costar, UK) in differentiation media containing 50% DMEM in BGEM with the same supplements as above but without triiodothyronine and a final retinoic acid concentration of 50 nM (all-trans retinoic acid; Sigma-Aldrich, UK). Cells were maintained submerged for the first 7 days in culture after which time they were exposed to an apical air interface for the remainder of the culture period. From the first day of establishment of an ALI, HBEC were fed with a DMEM:HAMS F-12 (1:1) media containing 2% Ultroser G (Pall BioSepra, France) with gentamycin (50 μg/mL) and amphotericin B (50 ng/mL). Cells were used for short-circuit current assay between days 14-21 after the establishment of the ALI. At all stages of culture, cells were maintained at 37° C. in 5% CO2 in an air incubator.
# Short-Circuit Current (ISC) Measurements
# Snapwell inserts were mounted in Costar Vertical Diffusion Chambers (Costar, UK) and were bathed with continuously gassed Ringer solution (5% CO2 in O2; pH 7.4) maintained at 37° C. containing (in mM): 120 NaCl, 25 NaHCO3, 3.3 KH2PO4, 0.8 K2HPO4, 1.2 CaCl2, 1.2 MgCl2 and 10 glucose. The solution osmolarity was always between 280-300 mOsm/kg H2O for all physiological salt solutions used. Cells were voltage clamped to 0 mV (model EVC4000, WPI). Transepithelial resistance (RT) was measured by applying a 2 mV pulse at 30 s intervals and calculating RT by Ohm's law. Data were recorded using a PowerLab workstation (ADInstruments, UK).
# ENaC blocker compounds were added to the apical chamber from a 1000-fold stock solution (prepared in DMSO) to achieve a cumulative concentration response in terms of the inhibition of the basal ISC. At the completion of the concentration response, a supra-maximal concentration of amiloride (10 μM) was added. The concentration of test compound that induced a 50% inhibition of the total amiloride-sensitive ISC (IC50) was calculated using GraphPad Prism v6.05. […]
row,IC50 [nM],Compound
1,47,"CCn1c(CNC(=O)c2nc3cn[nH]c3nc2N)[n+](CC)c2ccc(C(=O)N3CCC(N(C[C@H](O)[C@@H](O)[C@H](O)[C@H](O)CO)C[C@H](O)[C@@H](O)[C@H](O)[C@H](O)CO)CC3)cc21 [Example 4, 2-[({6-amino-1H-pyrazolo[3,4-b]pyrazin-5-yl}formamido)methyl]-6-(4-{bis[(2S,3R,4R,5R)-2,3,4,5,6-pentahydroxyhexyl]amino}piperidine-1-carbonyl)-1,3-diethyl-1H-1,3-benzodiazol-3-ium trifluoroacetic acid trifluoroacetate]"
2,2,"CCn1c(CNC(=O)c2nc3c(C)n[nH]c3nc2N)[n+](CC)c2ccc(OC)cc21 [Example 1, 2-[({6-amino-3-methyl-1H-pyrazolo[3,4-b]pyrazin-5-yl}formamido)methyl]-1,3-diethyl-6-methoxy-1H-1,3-benzodiazol-3-ium trifluoroacetate]"
3,91.5,"CCn1c(CNC(=O)c2nc3c(C)n[nH]c3nc2N)[n+](CC)c2ccc(C(=O)O)cc21 [Example 2, 2-[({6-amino-3-methyl-1H-pyrazolo[3,4-b]pyrazin-5-yl}formamido)methyl]-6-carboxy-1,3-diethyl-1H-1,3-benzodiazol-3-ium formate]"
4,106,CCn1c(CNC(=O)c2nc3cn[nH]c3nc2N)[n+](CC)c2ccc(C(=O)O)cc21 [Example 3]
